Reference: the supplement of paper PMC6315032

Experiments:
Experiment in all cases: apparent dissociation constant (pKDapp, Kinobeads competition, Cheng-Prusoff corrected) (-log10 M); higher = tighter binding
Settings in all cases: affinity matrix / lysate: Kinobeads, mixed HEK293/K-562/placenta lysate
LYN = LYN (UniProt P07948)
ROCK2 = ROCK2 (UniProt O75116)
EPHA6 = EPHA6 (UniProt Q9UF33)
SYK = SYK (UniProt P43405)
EPHA7 = EPHA7 (UniProt Q15375)
EIF2AK4 = EIF2AK4 (UniProt Q9P2K8)
ULK3 = ULK3 (UniProt Q6PHR2)
Chain of ULK3 (Q6PHR2 whole entry): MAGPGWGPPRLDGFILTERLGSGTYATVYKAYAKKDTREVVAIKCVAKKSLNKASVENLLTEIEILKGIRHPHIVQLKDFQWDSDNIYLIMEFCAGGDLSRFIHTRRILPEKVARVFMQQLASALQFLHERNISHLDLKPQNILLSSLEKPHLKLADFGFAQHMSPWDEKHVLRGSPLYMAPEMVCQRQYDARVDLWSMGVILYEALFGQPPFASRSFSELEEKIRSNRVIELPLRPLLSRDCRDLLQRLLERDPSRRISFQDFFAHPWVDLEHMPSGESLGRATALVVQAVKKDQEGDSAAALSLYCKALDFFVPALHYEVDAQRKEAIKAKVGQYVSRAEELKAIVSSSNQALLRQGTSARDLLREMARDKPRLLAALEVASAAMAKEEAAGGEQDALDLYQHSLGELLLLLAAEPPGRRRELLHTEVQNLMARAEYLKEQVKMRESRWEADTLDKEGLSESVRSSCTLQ

CHEK1 = CHEK1 (UniProt O14757)
BRAF = BRAF (UniProt P15056)
Chain of BRAF (P15056 whole entry): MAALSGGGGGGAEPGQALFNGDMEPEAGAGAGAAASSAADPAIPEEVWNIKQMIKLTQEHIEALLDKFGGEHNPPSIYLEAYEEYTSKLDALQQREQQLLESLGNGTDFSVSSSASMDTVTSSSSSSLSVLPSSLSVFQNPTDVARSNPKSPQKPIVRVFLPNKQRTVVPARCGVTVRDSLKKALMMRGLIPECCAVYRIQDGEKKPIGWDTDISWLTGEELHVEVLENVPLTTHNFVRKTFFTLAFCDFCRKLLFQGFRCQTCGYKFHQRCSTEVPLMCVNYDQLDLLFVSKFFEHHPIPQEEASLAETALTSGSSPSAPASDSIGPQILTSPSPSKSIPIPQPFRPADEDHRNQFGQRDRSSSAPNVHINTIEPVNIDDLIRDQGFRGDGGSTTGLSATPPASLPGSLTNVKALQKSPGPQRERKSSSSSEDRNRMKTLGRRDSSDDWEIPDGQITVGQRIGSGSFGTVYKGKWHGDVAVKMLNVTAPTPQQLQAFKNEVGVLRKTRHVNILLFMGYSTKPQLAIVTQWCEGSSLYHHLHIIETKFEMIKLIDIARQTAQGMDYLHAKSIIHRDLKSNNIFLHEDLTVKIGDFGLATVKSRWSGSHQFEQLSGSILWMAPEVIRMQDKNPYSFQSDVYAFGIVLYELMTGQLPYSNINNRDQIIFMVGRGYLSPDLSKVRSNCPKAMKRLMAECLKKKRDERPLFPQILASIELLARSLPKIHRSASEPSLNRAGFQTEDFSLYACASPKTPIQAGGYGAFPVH

CSNK1D = CSNK1D (UniProt P48730)
KSR1 = KSR1 (UniProt Q8IVT5)
MYLK = MYLK (UniProt Q15746)
MAP3K1 = MAP3K1 (UniProt Q13233)
MERTK = MERTK (UniProt Q12866)
IRAK1 = IRAK1 (UniProt P51617)
PRKCB = PRKCB (UniProt P05771)
CLK1 = CLK1 (UniProt P49759)
MAP3K2 = MAP3K2 (UniProt Q9Y2U5)
ERN1 = ERN1 (UniProt O75460)
STK3 = STK3 (UniProt Q13188)
MAP2K4 = MAP2K4 (UniProt P45985)
Chain of MAP2K4 (P45985 whole entry): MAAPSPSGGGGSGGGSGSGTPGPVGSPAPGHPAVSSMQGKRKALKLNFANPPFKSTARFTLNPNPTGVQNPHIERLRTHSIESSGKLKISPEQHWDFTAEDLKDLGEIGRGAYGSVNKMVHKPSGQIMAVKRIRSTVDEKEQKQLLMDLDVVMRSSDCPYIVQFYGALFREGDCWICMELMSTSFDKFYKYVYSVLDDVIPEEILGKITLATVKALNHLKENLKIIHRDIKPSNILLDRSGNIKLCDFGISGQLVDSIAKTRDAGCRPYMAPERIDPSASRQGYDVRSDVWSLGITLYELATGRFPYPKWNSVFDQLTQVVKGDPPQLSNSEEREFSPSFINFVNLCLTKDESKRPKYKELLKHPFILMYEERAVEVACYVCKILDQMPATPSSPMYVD

EPHB4 = EPHB4 (UniProt P54760)
Chain of EPHB4 (P54760 whole entry): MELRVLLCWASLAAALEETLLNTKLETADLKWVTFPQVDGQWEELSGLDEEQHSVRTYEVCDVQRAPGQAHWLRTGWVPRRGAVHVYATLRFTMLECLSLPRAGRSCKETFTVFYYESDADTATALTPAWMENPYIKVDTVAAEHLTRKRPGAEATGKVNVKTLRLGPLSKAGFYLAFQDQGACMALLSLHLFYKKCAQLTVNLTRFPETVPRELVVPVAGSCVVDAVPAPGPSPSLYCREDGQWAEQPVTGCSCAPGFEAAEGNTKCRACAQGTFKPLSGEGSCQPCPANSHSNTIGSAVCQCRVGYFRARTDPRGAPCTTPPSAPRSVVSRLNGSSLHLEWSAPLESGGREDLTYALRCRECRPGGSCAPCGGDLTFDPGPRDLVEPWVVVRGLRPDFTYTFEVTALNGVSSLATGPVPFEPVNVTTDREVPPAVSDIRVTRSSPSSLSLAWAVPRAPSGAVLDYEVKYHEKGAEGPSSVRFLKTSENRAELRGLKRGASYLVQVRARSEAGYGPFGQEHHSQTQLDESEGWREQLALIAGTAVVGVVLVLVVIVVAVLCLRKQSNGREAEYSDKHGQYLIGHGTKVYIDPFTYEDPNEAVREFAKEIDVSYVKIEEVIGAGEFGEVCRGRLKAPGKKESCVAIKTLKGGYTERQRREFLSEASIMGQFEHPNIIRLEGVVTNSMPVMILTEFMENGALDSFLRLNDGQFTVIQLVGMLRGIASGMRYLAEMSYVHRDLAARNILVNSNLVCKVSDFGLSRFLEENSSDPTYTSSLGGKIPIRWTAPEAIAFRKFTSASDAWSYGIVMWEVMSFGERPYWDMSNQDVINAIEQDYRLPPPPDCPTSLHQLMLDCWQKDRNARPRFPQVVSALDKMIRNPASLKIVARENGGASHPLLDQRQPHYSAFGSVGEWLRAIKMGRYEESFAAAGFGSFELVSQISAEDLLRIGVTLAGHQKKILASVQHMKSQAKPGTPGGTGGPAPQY

PKN2 = PKN2 (UniProt Q16513)
NTRK1 = NTRK1 (UniProt P04629)
ABL1 = ABL1 (UniProt P00519)
Chain of ABL1 (P00519 whole entry): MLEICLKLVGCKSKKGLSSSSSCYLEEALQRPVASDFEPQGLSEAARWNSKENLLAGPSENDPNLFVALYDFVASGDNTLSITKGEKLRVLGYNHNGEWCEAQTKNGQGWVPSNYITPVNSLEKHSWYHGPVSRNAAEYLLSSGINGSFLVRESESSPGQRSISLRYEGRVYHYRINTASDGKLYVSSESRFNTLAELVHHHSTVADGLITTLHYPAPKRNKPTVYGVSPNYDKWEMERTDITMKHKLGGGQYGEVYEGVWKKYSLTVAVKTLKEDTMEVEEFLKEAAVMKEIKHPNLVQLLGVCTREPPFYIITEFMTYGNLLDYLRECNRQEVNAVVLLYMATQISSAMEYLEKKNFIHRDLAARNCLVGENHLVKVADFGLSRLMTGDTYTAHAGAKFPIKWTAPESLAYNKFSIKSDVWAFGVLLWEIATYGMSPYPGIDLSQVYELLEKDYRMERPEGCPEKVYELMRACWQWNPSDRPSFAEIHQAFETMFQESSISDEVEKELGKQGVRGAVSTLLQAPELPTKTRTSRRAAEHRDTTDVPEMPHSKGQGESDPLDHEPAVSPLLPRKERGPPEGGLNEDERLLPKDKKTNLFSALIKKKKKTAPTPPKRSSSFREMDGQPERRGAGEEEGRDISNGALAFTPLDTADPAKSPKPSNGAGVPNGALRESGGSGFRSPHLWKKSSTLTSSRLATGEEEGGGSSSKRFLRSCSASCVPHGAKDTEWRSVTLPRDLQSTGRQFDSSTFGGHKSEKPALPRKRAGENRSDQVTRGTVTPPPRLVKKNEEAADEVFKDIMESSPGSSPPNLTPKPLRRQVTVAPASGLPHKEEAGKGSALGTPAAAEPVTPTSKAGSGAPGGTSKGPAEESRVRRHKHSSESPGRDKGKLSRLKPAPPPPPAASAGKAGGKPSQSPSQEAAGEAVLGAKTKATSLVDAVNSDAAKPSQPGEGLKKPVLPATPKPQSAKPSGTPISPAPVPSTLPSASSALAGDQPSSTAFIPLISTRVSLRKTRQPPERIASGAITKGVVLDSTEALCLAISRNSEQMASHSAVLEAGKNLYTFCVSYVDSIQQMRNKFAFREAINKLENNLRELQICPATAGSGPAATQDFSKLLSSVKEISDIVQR

GAK = GAK (UniProt O14976)
Chain of GAK (O14976 whole entry): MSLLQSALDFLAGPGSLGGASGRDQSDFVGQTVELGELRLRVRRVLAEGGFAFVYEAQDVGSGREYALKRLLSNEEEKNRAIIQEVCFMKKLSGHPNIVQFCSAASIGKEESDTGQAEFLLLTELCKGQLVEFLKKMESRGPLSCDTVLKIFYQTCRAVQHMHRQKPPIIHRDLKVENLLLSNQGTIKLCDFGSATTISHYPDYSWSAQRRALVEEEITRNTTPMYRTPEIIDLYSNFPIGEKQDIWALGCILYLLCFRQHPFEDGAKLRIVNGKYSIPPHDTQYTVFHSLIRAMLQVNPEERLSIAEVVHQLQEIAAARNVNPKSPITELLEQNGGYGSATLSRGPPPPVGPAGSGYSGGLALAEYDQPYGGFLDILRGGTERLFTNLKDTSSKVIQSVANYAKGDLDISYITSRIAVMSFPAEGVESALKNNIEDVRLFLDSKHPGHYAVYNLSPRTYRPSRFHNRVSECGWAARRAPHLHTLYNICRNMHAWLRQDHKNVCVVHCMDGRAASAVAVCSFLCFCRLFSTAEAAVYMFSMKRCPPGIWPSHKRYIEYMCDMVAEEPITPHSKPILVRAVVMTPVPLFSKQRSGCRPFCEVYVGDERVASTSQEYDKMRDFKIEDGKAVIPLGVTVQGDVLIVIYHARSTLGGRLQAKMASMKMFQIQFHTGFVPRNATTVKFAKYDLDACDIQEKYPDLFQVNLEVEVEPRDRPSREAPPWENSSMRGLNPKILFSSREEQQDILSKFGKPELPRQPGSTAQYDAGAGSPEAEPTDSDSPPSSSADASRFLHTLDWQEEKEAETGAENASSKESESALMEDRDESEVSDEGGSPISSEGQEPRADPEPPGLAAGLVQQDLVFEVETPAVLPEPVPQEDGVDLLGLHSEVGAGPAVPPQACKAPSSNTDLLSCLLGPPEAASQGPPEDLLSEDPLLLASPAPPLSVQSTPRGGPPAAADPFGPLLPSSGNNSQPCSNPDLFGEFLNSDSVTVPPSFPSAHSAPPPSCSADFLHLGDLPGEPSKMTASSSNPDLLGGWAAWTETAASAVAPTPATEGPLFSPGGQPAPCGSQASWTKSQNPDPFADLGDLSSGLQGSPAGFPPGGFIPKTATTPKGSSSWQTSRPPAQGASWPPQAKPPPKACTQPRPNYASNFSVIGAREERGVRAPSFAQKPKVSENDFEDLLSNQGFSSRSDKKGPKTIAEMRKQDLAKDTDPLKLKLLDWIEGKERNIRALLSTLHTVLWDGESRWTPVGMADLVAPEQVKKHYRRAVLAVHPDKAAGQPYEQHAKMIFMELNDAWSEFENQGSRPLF

CAMK1 = CAMK1 (UniProt Q14012)
ADCK5 = ADCK5 (UniProt Q3MIX3)
RP6-213H19 1 = biological target: RP6-213H19 1
EIF2AK3 = EIF2AK3 (UniProt Q9NZJ5)
MAPK10 = MAPK10 (UniProt P53779)
MAP3K11 = MAP3K11 (UniProt Q16584)
CDK9 = CDK9 (UniProt P50750)
TLK1 = TLK1 (UniProt Q9UKI8)

| apparent dissociation constant (-log10 M) (LYN) | apparent dissociation constant (-log10 M) (ROCK2) | apparent dissociation constant (-log10 M) (EPHA6) | apparent dissociation constant (-log10 M) (SYK) | apparent dissociation constant (-log10 M) (EPHA7) | apparent dissociation constant (-log10 M) (EIF2AK4) | apparent dissociation constant (-log10 M) (ULK3) | apparent dissociation constant (-log10 M) (CHEK1) | apparent dissociation constant (-log10 M) (BRAF) | apparent dissociation constant (-log10 M) (CSNK1D) | apparent dissociation constant (-log10 M) (KSR1) | apparent dissociation constant (-log10 M) (MYLK) | apparent dissociation constant (-log10 M) (MAP3K1) | apparent dissociation constant (-log10 M) (MERTK) | apparent dissociation constant (-log10 M) (IRAK1) | apparent dissociation constant (-log10 M) (PRKCB) | apparent dissociation constant (-log10 M) (CLK1) | apparent dissociation constant (-log10 M) (MAP3K2) | apparent dissociation constant (-log10 M) (ERN1) | apparent dissociation constant (-log10 M) (STK3) | apparent dissociation constant (-log10 M) (MAP2K4) | apparent dissociation constant (-log10 M) (EPHB4) | apparent dissociation constant (-log10 M) (PKN2) | apparent dissociation constant (-log10 M) (NTRK1) | apparent dissociation constant (-log10 M) (ABL1) | apparent dissociation constant (-log10 M) (GAK) | apparent dissociation constant (-log10 M) (CAMK1) | apparent dissociation constant (-log10 M) (ADCK5) | apparent dissociation constant (-log10 M) (RP6-213H19 1) | apparent dissociation constant (-log10 M) (EIF2AK3) | apparent dissociation constant (-log10 M) (MAPK10) | apparent dissociation constant (-log10 M) (MAP3K11) | apparent dissociation constant (-log10 M) (CDK9) | apparent dissociation constant (-log10 M) (TLK1) | SMILES |
| --- | --- | --- | --- | --- | --- | --- | --- | --- | --- | --- | --- | --- | --- | --- | --- | --- | --- | --- | --- | --- | --- | --- | --- | --- | --- | --- | --- | --- | --- | --- | --- | --- | --- | --- |
| < 6 | < 6 | < 6 | < 6 | < 6 | < 6 | < 6 | < 6 | < 6 | < 6 | < 6 | < 6 | < 6 | < 6 | < 6 | < 6 | < 6 | < 6 | < 6 | < 6 | < 6 | < 6 | < 6 | < 6 | < 6 | < 6 |  |  |  |  |  |  |  |  | COc1ccc(-c2ccc3c(N4CCOC[C@@H]4C)nc(N4CCOC[C@@H]4C)nc3n2)cc1CO [AZD8055] |
| < 6 |  | < 6 | < 6 | < 6 | < 6 | < 6 | < 6 | < 6 | < 6 | < 6 | < 6 | < 6 | < 6 | < 6 | < 6 | < 6 | < 6 | < 6 | < 6 | < 6 | < 6 | < 6 | < 6 | < 6 | < 6 | < 6 | < 6 | < 6 | < 6 | < 6 | < 6 | < 6 | < 6 | CCNC(=O)Nc1ccc(-c2nc(N3CCOC[C@@H]3C)c3c(n2)C(C)(C)S(=O)(=O)C3)cc1 [CZ415] |
